Assay results published in PubChem BioAssay AID624344 (Sanford-Burnham Center for Chemical Genomics, 2012).
Active and inactive are the calls of the source. The rule behind the calls is not given here.

How the values were obtained:
[1] = NFkB reporter suppression in cystic fibrosis bronchial cells – cell-based, uHTS hits, panel, cytotoxicity readout, dose response (AID 624344); details: CF bronchial epithelial cells, PAF-induced NFkB reporter inhibition; with PAF, mean of runs
Cytotoxicity = test: as above; details: CF bronchial epithelial cells, mean of runs

SMILES	IC50 [1]	IC50 (Cytotoxicity)
O=c1cc(-c2ccccc2Cl)oc2c([N+](=O)[O-])c(O)cc(O)c12	0.235 µM	5.36 µM
Cc1ccc2occ(/C=N/NC(=O)c3ccccc3C)c(=O)c2c1	1.36 µM	43.2 µM
CC(=O)c1ccc(-c2cnc3c(NC=O)cc(-c4ccc(C(=O)NC5CC5)cc4)cn23)cc1	4.25 µM	27.4 µM
CC[C@@H](C(=O)[C@@H](C)[C@@H](O)[C@H](C)[C@@H]1O[C@@H]([C@@H](CC)C(=O)O)CC[C@@H]1C)[C@H]1O[C@]2(C=C[C@@H](O)[C@]3(CC[C@@](C)([C@H]4CC[C@](O)(CC)[C@H](C)O4)O3)O2)[C@H](C)C[C@@H]1C	0.399 µM	2.36 µM
CC(=O)c1c(C)n(-c2ccccc2)c2ccc(O)cc12	5.58 µM	> 79 µM (inactive)
COc1ccc(Cc2nnc(SCc3ccc([N+](=O)[O-])cc3)o2)cc1	1.76 µM	41.8 µM
Nc1nc(N)nc(-c2ccc(Cl)c(Cl)c2)n1	2.78 µM	20.3 µM
Cc1nnc(SCC(=O)N2CCC(c3noc4ccc(F)cc34)CC2)s1	1.18 µM	> 79 µM (inactive)
FC(F)Sc1ccc(NC(=S)NCC2CCCCC2)cc1	5.53 µM	7.18 µM
Cc1cccc(NC(=O)c2cc(-c3ccc(C)s3)nc3ccccc23)n1	5.26 µM	42.4 µM
Cc1ccc(-n2cc(-c3ccccc3)c3c(N4CCOCC4)ncnc32)cc1	3.49 µM	3.85 µM
CC(C)C[C@H](CO)Nc1nc(Nc2cccc(Cl)c2)c2ncn(C(C)C)c2n1	5.12 µM	36.2 µM
c1cncc(-c2ccc3ncnc(NCc4ccc5c(c4)OCO5)c3c2)c1	6.5 µM	6.65 µM
CCOC(=O)c1ccc(-n2[nH]c(-c3ccccc3)cc2=O)cc1	5.35 µM	3.77 µM
Cc1ccccc1S(=O)(=O)Cc1ccc(C(=O)N2CCN(c3cccc(C)c3C)CC2)o1	11 µM	25 µM
Cc1cc(C)nc(Sc2ncnc(N)c2[N+](=O)[O-])n1	5.09 µM	13.5 µM
O=[N+]([O-])c1ccc(Oc2ccc(F)cc2)c2ccncc12	1.82 µM	42.4 µM
CC(C)OC(=O)c1cccc(C(=O)Nc2cccc(NC(=O)c3cccc(C(=O)OC(C)C)n3)n2)n1	4.5 µM	> 79 µM (inactive)
CCOC(=O)[C@@H]1[C@H]2COc3ccc(Br)cc3[C@H]2N2C(=O)N(c3ccc(C)cc3)C(=O)[C@]12C	> 79 µM (inactive)	> 79 µM (inactive)
Cc1nc([N+](=O)[O-])c(Sc2nc3ccccc3n2C)n1Cc1ccccc1	4.05 µM	13 µM

SMILES	IC50 [1]	IC50 (Cytotoxicity)
O=C(CN1C(=O)CCC1=O)Nc1nc(-c2nc3ccccc3s2)cs1	4.92 µM	> 79 µM (inactive)
COc1cccc(/C=N/n2c(C3CCCCC3)n[nH]c2=S)c1	3.97 µM	33.7 µM
O=C(Nc1ccc(OCC(=O)N2CCOCC2)cc1)c1cncc(Br)c1	6.67 µM	> 79 µM (inactive)
N#Cc1cccc(NC(=O)COC(=O)c2ccccc2C(=O)c2ccc(Cl)c([N+](=O)[O-])c2)c1	2.66 µM	9.79 µM
CC(=O)OC1(C)CC(C)C(=O)C(C(O)CC2CC(=O)NC(=O)C2)C1 (stereo not drawn)	< 0.15 µM	0.177 µM
COc1cc2oc(=O)cc(-c3ccc(-c4ccc(N(C)C)cc4)cc3)c2c(OC)c1OC	11.6 µM	39.9 µM
CC(C)C[C@H]1CNC(=S)N1C[C@H]1CCCN1C[C@H](Cc1ccccc1)N1C[C@H](Cc2ccc(O)cc2)N(CC2CCCCCC2)C1=S	15.3 µM	28.6 µM
O=C(/C=C/c1cccs1)Nc1cccc(NC(=O)/C=C/c2cccs2)n1	5.98 µM	1.57 µM
CCOC(=O)Cc1nnc2c(Nc3ccc(Cl)cc3)nc3nonc3n12	3.23 µM	1.72 µM
NC(=O)c1sc2nccc(Nc3ccccc3)c2c1N	0.374 µM	40 µM
Fc1ccccc1-c1csc(=Nc2cccnc2)n1CCCn1ccnc1	5.92 µM	48.4 µM
CCOC(=O)C1=C(C)Nc2ccccc2N=C1NC(=O)c1oc2ccccc2c1COC	4.25 µM	30.1 µM
CC1CCN(Cc2c(C(=O)N/N=C/c3ccc(C(C)(C)C)cc3)nnn2-c2nonc2N)CC1	14.6 µM	29.8 µM
CCc1cc(SC#N)cc(C)c1NC(=O)CCl	5.47 µM	43.5 µM
C=C1C(=O)OC2CC1C(O)CC(C)=CCCC(C)=CC(O)CC2C (stereo not drawn)	0.537 µM	1.09 µM
C=C(C)[C@@H]1CCC2(C(=O)O)CC[C@]3(C)[C@H](CC[C@@H]4[C@@]5(C)CCC(=O)C(C)(C)[C@@H]5CC[C@]43C)[C@@H]12 (stereo partly drawn)	8.27 µM	12.9 µM
COc1cccc(NC(=O)Nc2nnc(CC(=O)NCc3ccccc3)s2)c1	5.09 µM	52.3 µM (inactive)
CC1(C)Cc2c(ccc3ccccc23)C(=O)N1	3.27 µM	> 79 µM (inactive)
CCN(CC)CCNC(=O)c1ccc(NC(=O)C2CCN(c3ncnc4sc(C)c(C)c34)CC2)cc1	6.33 µM	16.1 µM
Cc1ccc(NC(=O)c2ccccc2NS(=O)(=O)c2ccc(Cl)s2)cc1S(=O)(=O)N1CCOCC1	3.36 µM	8.23 µM

SMILES	IC50 [1]	IC50 (Cytotoxicity)
CCOC(=O)c1sc(NC(=O)c2cccc(S(=O)(=O)N3CCc4ccccc43)c2)c(C#N)c1C	1.02 µM	6.88 µM
O=S(=O)(CC(CN1CCCC1)N1CCCC1)c1ccc2ccccc2c1 (stereo not drawn)	1.46 µM	2.35 µM
COc1cc2cncc(Cc3ccc(Cl)cc3)c2cc1OC	2.87 µM	20.9 µM
CCCCN(CCCC)c1ncnc2nc[nH]c12	5.64 µM	41.4 µM
CCc1ccccc1NC(=O)CN(C)C(=O)Cn1ncc(Cl)c(Cl)c1=O	6.43 µM	38 µM
Cc1[nH]nc2c1-c1nc3ccccc3nc1C(C)(C)C2	10.4 µM	> 79 µM (inactive)
CCOc1cccc(-c2nnc3sc(C4CCCCC4)nn23)c1	2.88 µM	33.3 µM
COc1ccc(C(=O)Nc2cccc(NC(=O)c3ccc(OC)c(OC)c3)n2)cc1OC	3.69 µM	1.49 µM
C[C@H]1Cn2cnc(C(=O)Nc3cccc(Cl)c3)c2C(=O)N1	2.26 µM	25.5 µM
Cc1ccc(S(=O)(=O)n2cc(-c3ccccc3)c3ccccc32)cc1	5.53 µM	> 79 µM (inactive)
COc1ccc(/C=C/C(=O)c2cc(F)ccc2OC(=O)c2ccccc2C)cc1OC	inactive	62.5 µM (inactive)
Cc1ccc(-n2nnnc2Sc2ccc(S(=O)(=O)NCCN(C)C)cc2[N+](=O)[O-])cc1	2.65 µM	1.99 µM
COc1ccc(-c2cc(=O)oc3c(C)c(OC(=O)c4cccs4)ccc23)cc1	1.6 µM	> 79 µM (inactive)
Fc1ccc(-n2cc(-c3ccccc3)c3c(N4CCOCC4)ncnc32)cc1	3.21 µM	8.13 µM
Clc1ccccc1C1=Nn2c(nnc2-c2ccncc2)SC1	0.624 µM	> 79 µM (inactive)
O=C1C=C(NC2=CC3OC(c4ccccc4)OCC3OC2=O)CCC1 (stereo not drawn)	3.74 µM	–
O=S1(=O)CC=C(CSC(=S)NC2CCS(=O)(=O)C2)C1 (stereo not drawn)	3.05 µM	–
O=C(N/N=C/c1ccccc1Cl)c1[nH]c2ccc(Br)cc2c1-c1ccccc1	10.7 µM	–
